Experimental data from patent US20090298752A1, “APLIDINE TREATMENT OF CANCERS” (PHARMA MAR, S.A., priority 1999, published 2009).
pIC50: −log10 of the molar value. Entries after “also recorded” stand apart in the source; their conditions may differ.

How the values were obtained:
B 16 melanoma = conditions: mice; cited from earlier work
[1] = test system: PC-3 prostate tumour cells; assay: in vitro activity on prostate tumour cells; assay type: cell-based, human
Experimental: Different model systems were evaluated to provide the basis for further clinical work. Selective antitumour activities were seen against two histologically different solid tumours: human gastric and prostate carcinomas. Potent in vitro activity to primary gastric tumour specimens or Hs746T gastric tumour cells is evident with IC30 values of 146 and 450 pM, respectively. […] activities were evaluated in nude rodents using sc implanted tumour fragments or hollow fibres (HF) containing tumour cells.

VEGF mRNA [2] = assay: VEGF mRNA levels in IGROV-1; assay type: cell-based, human
FLT-1 (VEGF-R1) = assay: cDNA expression array, PCR, Western in MOLT-4 cells; assay type: cell-based, human; conditions: for quantitative change in FLT-1 expression: MOLT-4, 1 h treatment
Experimental: (§1) The early changes in gene expression induced by aplidine in MOLT-4 cells were evaluated by using cDNA expression arrays (Atlas Human Cancer, Clontech). MOLT-4 cells were treated for 1 hour with concentrations of aplidine which inhibit the growth by 50% and total RNA was isolated at 0, 1, 6 and 24 hours after drug wash out. Filters were hybridised with equal amount of 32P labelled cDNA. Analysis of the results was carried out using ATLAS IMAGE 1.0 software. Changes in gene expression greater than 2 fold were taken as significant changes in RNA expression and subsequently confirmed by PCR.
as §1, with “In the present study we have evaluated the early” for “The early”, “cells” for “cells were evaluated”, “of aplidien” for “of aplidine”, “isolated t” for “isolated at”, “equal amounts” for “equal amount”, “PCR. […] Whether the down-regulation of flt-1 is involved in the cytotoxic and antitumour effect of aplidine is under investigation at the moment.” for “PCR.”
The human leukaemia cell line MOLT-4 was used for these experiments MOLT-4 cells were treated for 1 hour with 20 nM of aplidine. Total RNA was extracted at the end of treatment and 6 and 24 hours after recovery in drug-free medium.
5 μg of total RNA were retrotanscribed to cDNA in the presence of ^32P dATP. Equal amounts of radioactive probes were hybridised to Atlas Human Cancer Microarrays (Clontech). After washing, filter were exposed and the results analysed using the Atlas Image software. Only a gene expression difference greater than 2 fold between treated and untreated cells were taken into account. RT-PCR and northern analysis have been performed to confirm the changes in gene expression found with the microarrays.

P388 leukaemia = conditions: mice; cited from earlier work
[3] = Phase I, 1 h weekly infusion x3 q4wk: toxicity and pharmacokinetics; assay type: in vivo, human
[4] = stability testing of aplidine and lyophilised dosage form; assay type: physicochemical; conditions: solubilised; heat and light stress testing
Experimental: In a currently preferred embodiment freeze-drying was performed from a 500 mg/mL solution of aplidine in 40% (v/v) tert-butanol in Water for Injection (WfI) containing 25 mg/mL D-mannitol as bulking agent.

VEGF mRNA [5] = assay: VEGF mRNA in MOLT-4 cells (Rnase protection); assay type: cell-based, human
MOLT-4 cells = assay: activity of aplidine on MOLT-4 cells with VEGF added; assay type: cell-based, human; conditions: VEGF 10 ng/ml, 10% FCS, low concentrations of aplidine
cell cycle = conditions: flow cytometric analysis; cited from earlier work
advanced solid tumours = assay: Phase I, 24 h infusion weekly x3 q4wk: antitumour activity; assay type: in vivo, human
Experimental: In this study 16 patients were treated. patients characteristics: median age 55 years, median PS 1, male/female 11/5, tumour types being as follows: Head and neck 5, kidney 2, colon 3, rectum 2, sarcoma 1 and melanoma 3, all pre-treated with chemotherapy (median 2 lines).
Aplidine was administered as a 24 h infusion at the following dose levels (Dls): 133 (3 pts), 266 (3 pts), 532 (3 pts), 1000 (3 pts), 2000 (3 pts) and 3000 (1 pt) mcg/m^2/wk×3 every 28 days.
To date, 25 pts (median age 58 yrs, median ECOG 1) with advanced, previously treated solid tumours or lymphoma have been treated in this phase I study. Using a schedule of APL 24 h weekly×3 followed by 1 wk rest, the following dose levels have been tested: 133 (n-3 pts), 266 (3), 532 (3), 1000 (3), 2000 (3), 4500 (3) and 3750 μg/m^2/wk (3). With 60 cycles (180 infusions) administered, all pts are evaluable for toxicity. The Maximum Tolerated Dose was 4500 μg/m^2/wk×3 with grade (G) 3 muscular toxicity (biopsy proven type II muscular atrophy). G4 CPK and G3 transaminitis the dose-limiting toxicities in 2 or 4 pts. […] All pts have been sampled for PK analysis by LC/MS/MS. […] As expected, neuromuscular toxicity is dose-limiting. The possible recommended dose of 3750 μg/m^2/wk×3 is being assessed.
A phase I trial was performed using 24 hour infusion weekly×3 followed by 1 wk rest. 32 patients (median age 58 yrs, median ECOG 1) with advanced, previously treated solid tumours have been treated. They have received 64 courses (median/pt: 2 (1-6)) across 8 dose levels: 133 (3 pts), 266 (3 pts), 532 (3 pts), 1000 (3 pts), 2000 (3 pts), 3000 (3 pts), 4500 (4 pts) and 3750 mcg/m^2/wk (10 pts). 2 out of 3 evaluable patients had DLT at 4500 mcg/m^2/wk: grade (G) 4 reversible neuromuscular toxicity (biopsy prevent type II muscular atrophy) and G4 CK increase (1 pt), and transient G3 transaminitis (1 pt). Other toxicities included G 1-2 malaise (most patients treated at ≧3000 mcg/m^2/wk), muscle cramps, G 1-2 emesis (responsive to antiemetics) and injection site reaction (very common and concentration-dependent). All patients have been sampled for PK analysis by a LC/MS/MS method. Pharmacokinetics are linear and the profiles fit a 2 compartment open model. […] Maintained plasma levels >1 ng/ml (active in vitro) were obtained at doses ≧3000 mcg/m^2. […] Four additional patients had minor responses or stable disease for >4 months. […] The recommended dose for future trials, 3750 mcg/m^2/wk×3, administered through a central vein catheter, is feasible and associated with mild toxicity.

In the case of aplidine, the “activity against implanted tumour” value (B 16 melanoma) is given as “active”, the pIC50 [1] is given as 8.47 and the “mRNA levels of VEGF, in words” value (VEGF mRNA [2]) is given as “reduces the mRNA levels of VEGF”. The “expression of VEGF-RI/flt-1 gene, in words” value (FLT-1 (VEGF-R1); MOLT-4, 20 nM 1 h, at the end of treatment) was “decreased”, the “levels of flt-1, in words” value (FLT-1 (VEGF-R1); MOLT-4, 20 nM 1 h, by 6 and 24 hours) was “further decreased” and the “quantitative change in FLT-1 expression” value (FLT-1 (VEGF-R1); 1 Hour) was −1.5 fold. The “quantitative change in FLT-1 expression” value (FLT-1 (VEGF-R1); 6 Hours) was −5.0 fold, the “quantitative change in FLT-1 expression” value (FLT-1 (VEGF-R1); 24 Hours) was −3.4 fold and the “expression of VEGF-R1 (flt-1), in words” value (FLT-1 (VEGF-R1); MOLT-4, RNA level by PCR, protein level by Western blotting) was “downregulated; also recorded: inhibits expression; also recorded: marked time-dependent reduction; also recorded: decrease in flt-1 mRNA”. For the same substance, the “activity against implanted tumour” value (P388 leukaemia) was “active”, the “Alk. Phos. G3 (worst toxicity per patient)” value ([3]; 2700 mcg/m^2/wk x3, 8 patients, footnote DLT) was “(1)^(2)” and the “Transaminitis G3 (worst toxicity per patient)” value ([3]; 2700 mcg/m^2/wk x3, 8 patients, one with Hepatitis C, 2 reversible by day 8, 1 DLT) was 4. The “Myalgia G2 (worst toxicity per patient)” value ([3]; 3600 mcg/m^2/wk x3, 2 patients) was 1, the degradation [4] was “substantial degradation” and the “half life of VEGF mRNA, in words” value (VEGF mRNA [5]) was “does not change the half life of VEGF mRNA”. The “levels of VEGF mRNA, in words” value (VEGF mRNA [5]; 20 nM aplidine) was “strong decrease; also recorded: decrease in the mRNA encoding for VEGF”, the “effect of added VEGF on activity of aplidine” value (MOLT-4 cells) was “slightly reduced the activity of low concentrations of aplidine; also recorded: partially abolish the activity of aplidine” and the cell cycle pertubations (cell cycle) was “did not induce any apparent cell cycle pertubations”. For the same substance, the “clinical response, pre-treated advanced melanoma” value (advanced solid tumours; DL 532 mcg/m^2/w, 1 patient) was “clinical improvement”, the “response, Patient #034, thyroid medullary carcinoma” value (advanced solid tumours; decrease in CEA marker) was “Clinical improvement and SD at lung lymphangitis” and the “duration of minor responses or stable disease” value (advanced solid tumours; four additional patients) was over 4 months. For the same substance, the “response, Patient #008, non measurable metastatic melanoma” value (advanced solid tumours; highly pre-treated) was “clinical improvement and tumour shrinkage”, the “tumour shrinkage, Patient #032, renal carcinoma” value (advanced solid tumours; in vivo) was 20% and the “duration of clinical improvement, advanced melanoma resistant to DTIC/interferon” value (advanced solid tumours; one patient) was over 30 weeks.
